One data set has as its system SET-2. Briefly: Cytotoxicity against human SET2 cells measured after 8 days. It is filed as functional, cell-based. The note with it: SET-2, 192 h.
Data set [1] concerns the target Bromodomain and WD repeat-containing protein 1 (Homo sapiens, UniProt Q9NSI6). Kind of data set: Binding affinity to human partial length WDR9 bromodomain 2 (A1310 to E1430 residues) expressed in bacterial expression system by BROMOscan assay.
In the next data set the test system is SK-MEL-1. Kind of data set: Cytotoxicity against human SK-MEL-1 cells measured after 8 days. It is filed as functional, cell-based. The note with it: SK-MEL-1, 192 h.
Data set [2] in a line: Cytotoxicity against human HCC2279 cells measured after 8 days. The note with it: HCC2279, 192 h. It is filed as functional, cell-based.
In another data set the test system is MCF-10A. Kind of data set: Cytotoxicity against human MCF-10A AKT2-/- cells measured after 8 days. The note with it: 192 h. Type of data set: functional, cell-based.
The target of data set [3] is SWI/SNF-related matrix-associated actin-dependent regulator of chromatin subfamily A member 2 (Homo sapiens, UniProt P51531). Briefly: Binding affinity to human partial length SMARCA2 (S1377 to Q1486 residues) expressed in bacterial expression system by BROMOscan assay.
Sequence of SWI/SNF-related matrix-associated actin-dependent regulator of chromatin subfamily A member 2 (P51531 whole entry, the tested form may be a part): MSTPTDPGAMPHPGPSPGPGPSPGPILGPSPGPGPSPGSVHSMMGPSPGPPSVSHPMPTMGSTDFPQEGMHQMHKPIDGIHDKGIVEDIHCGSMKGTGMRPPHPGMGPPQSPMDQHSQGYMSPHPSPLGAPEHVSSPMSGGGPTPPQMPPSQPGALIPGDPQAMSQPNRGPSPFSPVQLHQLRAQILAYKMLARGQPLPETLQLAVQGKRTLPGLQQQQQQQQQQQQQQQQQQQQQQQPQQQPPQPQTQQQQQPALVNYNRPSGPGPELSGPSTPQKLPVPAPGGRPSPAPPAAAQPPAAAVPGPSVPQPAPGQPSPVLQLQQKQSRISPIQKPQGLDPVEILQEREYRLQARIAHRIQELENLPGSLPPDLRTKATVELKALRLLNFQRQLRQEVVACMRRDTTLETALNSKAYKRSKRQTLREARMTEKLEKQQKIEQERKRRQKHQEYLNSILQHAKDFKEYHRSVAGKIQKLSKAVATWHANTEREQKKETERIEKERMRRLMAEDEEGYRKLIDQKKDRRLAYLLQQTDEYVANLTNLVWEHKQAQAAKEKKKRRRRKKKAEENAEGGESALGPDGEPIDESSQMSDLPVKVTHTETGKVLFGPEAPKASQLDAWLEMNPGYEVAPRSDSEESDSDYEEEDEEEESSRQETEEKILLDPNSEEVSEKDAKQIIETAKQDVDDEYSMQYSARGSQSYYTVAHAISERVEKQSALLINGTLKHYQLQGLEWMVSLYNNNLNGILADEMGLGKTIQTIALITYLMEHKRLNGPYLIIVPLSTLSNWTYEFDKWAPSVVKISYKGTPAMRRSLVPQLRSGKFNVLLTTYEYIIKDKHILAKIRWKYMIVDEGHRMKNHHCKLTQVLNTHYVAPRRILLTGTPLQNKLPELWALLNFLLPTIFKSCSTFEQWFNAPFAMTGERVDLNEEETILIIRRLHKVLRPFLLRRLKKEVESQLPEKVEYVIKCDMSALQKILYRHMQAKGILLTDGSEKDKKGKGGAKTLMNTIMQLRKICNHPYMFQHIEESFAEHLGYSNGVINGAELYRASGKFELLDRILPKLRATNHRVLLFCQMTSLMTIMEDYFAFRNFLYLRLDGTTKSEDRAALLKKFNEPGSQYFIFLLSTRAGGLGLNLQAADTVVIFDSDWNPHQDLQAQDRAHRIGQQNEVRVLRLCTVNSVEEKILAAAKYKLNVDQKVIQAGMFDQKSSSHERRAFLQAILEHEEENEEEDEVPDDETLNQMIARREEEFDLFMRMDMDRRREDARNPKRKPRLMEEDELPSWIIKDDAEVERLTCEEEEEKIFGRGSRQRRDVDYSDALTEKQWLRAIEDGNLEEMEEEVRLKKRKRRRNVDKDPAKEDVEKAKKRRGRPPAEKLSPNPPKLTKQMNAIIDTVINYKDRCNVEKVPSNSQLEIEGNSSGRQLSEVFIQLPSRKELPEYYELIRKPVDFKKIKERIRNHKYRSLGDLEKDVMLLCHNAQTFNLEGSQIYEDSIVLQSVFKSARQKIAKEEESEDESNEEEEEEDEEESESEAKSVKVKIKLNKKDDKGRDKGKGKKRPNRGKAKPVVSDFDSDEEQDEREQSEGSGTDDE
The subject of the next data set is LXFL 529. Kind of data set: Cytotoxicity against human LXFL 529 cells measured after 8 days. Type of data set: functional, cell-based. The note with it: LXFL 529, 192 h.
For the next data set, the system named is Hs 294T. Briefly: Cytotoxicity against human Hs294T cells measured after 8 days. It is filed as functional, cell-based. The note with it: 192 h.
The target of data set [4] is L-type calcium channel, verapamil binding site (Rattus norvegicus, UniProt P22002+P27732+Q02485). Briefly: Displacement of [3H]D 888 from rat brain L-type calcium channel verapamil binding site at 10 uM after 120 mins by scintillation counting analysis relative to control. The note with it: rat brain L-type calcium channel preparation, probe [3H]D 888, read-out: Activity. On the technique in general: Displacement assays read how much labelled ligand stays bound in the presence of the test substance.

Data set [5] is described as follows: Cytotoxicity against human UM-UC-1 cells measured after 8 days. It is filed as functional, cell-based. The note with it: UM-UC-1, 192 h.
Data set [6] can be described thus: Cytotoxicity against human KE-39 cells measured after 8 days. The note with it: KE-39, 192 h. It is filed as functional, cell-based.
Data set [7] deals with Bromodomain adjacent to zinc finger domain protein 2A (Homo sapiens, UniProt Q9UIF9). Kind of data set: Binding affinity to human partial length BAZ2A (M1792 to L1905 residues) expressed in bacterial expression system by BROMOscan assay.
For data set [8], the target named is Bromodomain-containing protein 8 (Homo sapiens, UniProt Q9H0E9). Briefly: Binding affinity to BRD8 bromodomain 1 (unknown origin) by BROMOscan assay.
Sequence of Bromodomain-containing protein 8 (Q9H0E9 whole entry): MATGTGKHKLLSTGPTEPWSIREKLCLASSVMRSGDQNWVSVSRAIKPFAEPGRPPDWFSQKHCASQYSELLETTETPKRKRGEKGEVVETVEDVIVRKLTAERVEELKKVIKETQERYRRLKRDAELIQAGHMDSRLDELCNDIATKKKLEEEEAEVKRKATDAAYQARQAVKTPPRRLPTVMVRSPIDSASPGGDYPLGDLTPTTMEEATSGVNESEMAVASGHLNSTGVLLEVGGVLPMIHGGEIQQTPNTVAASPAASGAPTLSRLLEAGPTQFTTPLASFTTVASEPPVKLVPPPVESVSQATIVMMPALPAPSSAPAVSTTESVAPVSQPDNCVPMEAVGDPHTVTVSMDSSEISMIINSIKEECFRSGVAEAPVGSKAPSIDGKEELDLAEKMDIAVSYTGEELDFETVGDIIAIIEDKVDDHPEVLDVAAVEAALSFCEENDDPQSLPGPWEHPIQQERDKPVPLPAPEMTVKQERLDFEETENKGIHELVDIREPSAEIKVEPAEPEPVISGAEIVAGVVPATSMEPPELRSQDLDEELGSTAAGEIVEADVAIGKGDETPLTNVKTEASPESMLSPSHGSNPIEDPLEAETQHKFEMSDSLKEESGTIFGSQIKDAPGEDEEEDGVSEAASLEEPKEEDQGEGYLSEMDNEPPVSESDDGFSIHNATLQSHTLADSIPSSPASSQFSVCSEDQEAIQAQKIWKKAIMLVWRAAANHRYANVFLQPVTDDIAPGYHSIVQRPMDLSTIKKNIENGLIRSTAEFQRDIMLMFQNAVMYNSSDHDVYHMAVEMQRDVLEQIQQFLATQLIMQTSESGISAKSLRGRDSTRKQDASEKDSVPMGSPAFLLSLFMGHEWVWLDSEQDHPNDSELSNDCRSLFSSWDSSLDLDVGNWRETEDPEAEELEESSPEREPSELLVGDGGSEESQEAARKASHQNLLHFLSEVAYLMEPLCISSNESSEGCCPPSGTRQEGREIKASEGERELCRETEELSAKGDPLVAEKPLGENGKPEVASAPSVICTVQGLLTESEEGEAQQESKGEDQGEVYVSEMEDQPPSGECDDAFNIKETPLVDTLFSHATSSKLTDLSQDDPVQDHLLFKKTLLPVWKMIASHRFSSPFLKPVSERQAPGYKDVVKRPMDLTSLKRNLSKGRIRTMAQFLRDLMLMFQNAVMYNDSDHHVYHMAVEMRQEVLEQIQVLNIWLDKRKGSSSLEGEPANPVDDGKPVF
Data set [9] can be described thus: Cytotoxicity against human COLO 849 cells measured after 8 days. The note with it: COLO 849, 192 h. It is filed as functional, cell-based.
The subject of a further data set is BJAB. Kind of data set: Cytotoxicity against human BJAB cells measured after 8 days. It is filed as functional, cell-based. The note with it: 192 h.
Data set [10] addresses Bromodomain adjacent to zinc finger domain protein 2B (Homo sapiens, UniProt Q9UIF8). Kind of data set: Binding affinity to human partial length BAZ2B (S2054 to S2168 residues) expressed in bacterial expression system by BROMOscan assay.
A further data set concerns NCI-H647. Briefly: Cytotoxicity against human NCI-H647 cells measured after 8 days. It is filed as functional, cell-based. The note with it: NCI-H647, 192 h.
In a further data set the test system is T47D. Kind of data set: Cytotoxicity against human T47D cells measured after 8 days. Type of data set: functional, cell-based. The note with it: 192 h.
The next data set has as its system COR-L47. Briefly: Cytotoxicity against human COR-L47 cells measured after 8 days. Type of data set: functional, cell-based. The note with it: COR-L47, 192 h.
Data set [11] in a line: Cytotoxicity against human HCC2302 cells measured after 8 days. The note with it: HCC2302, 192 h. It is filed as functional, cell-based.
Data set [12] deals with T1, E3 ubiquitin-protein ligase TRIM33 (Homo sapiens, UniProt Q9UPN9).
T1 sequence (Q9UPN9 whole entry): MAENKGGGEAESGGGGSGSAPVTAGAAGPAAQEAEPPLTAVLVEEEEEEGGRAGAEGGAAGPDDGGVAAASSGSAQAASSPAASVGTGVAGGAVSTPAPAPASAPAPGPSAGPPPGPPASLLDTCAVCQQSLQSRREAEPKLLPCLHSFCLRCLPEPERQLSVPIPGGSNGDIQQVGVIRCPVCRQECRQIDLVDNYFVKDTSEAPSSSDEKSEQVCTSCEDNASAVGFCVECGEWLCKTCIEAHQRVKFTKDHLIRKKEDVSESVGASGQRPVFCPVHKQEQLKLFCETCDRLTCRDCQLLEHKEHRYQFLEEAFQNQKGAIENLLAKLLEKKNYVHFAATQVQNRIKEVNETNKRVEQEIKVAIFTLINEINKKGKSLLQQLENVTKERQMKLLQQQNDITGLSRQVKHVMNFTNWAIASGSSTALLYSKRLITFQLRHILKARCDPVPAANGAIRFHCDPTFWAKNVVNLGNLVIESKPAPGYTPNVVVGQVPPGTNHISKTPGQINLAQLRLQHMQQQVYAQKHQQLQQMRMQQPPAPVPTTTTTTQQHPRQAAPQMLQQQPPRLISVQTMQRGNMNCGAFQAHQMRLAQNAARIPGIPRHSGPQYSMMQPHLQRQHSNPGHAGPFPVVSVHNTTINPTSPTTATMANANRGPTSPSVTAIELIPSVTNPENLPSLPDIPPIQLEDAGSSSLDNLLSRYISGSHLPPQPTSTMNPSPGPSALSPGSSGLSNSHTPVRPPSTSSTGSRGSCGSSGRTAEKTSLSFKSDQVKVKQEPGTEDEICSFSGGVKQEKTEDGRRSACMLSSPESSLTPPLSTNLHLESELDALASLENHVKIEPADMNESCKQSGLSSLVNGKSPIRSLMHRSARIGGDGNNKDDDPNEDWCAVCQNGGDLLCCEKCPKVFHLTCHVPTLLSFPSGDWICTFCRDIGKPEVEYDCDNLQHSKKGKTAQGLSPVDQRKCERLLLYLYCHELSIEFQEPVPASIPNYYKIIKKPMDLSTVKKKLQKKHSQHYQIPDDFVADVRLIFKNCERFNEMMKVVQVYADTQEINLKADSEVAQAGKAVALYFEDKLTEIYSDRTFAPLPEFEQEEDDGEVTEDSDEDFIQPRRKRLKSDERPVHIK
Kind of data set: Binding affinity to human partial length TRIM33 (D882 to A1087 residues) expressed in bacterial expression system by BROMOscan assay.

Data set [13] in a line: Cytotoxicity against human HEC-265 cells measured after 8 days. Type of data set: functional, cell-based. The note with it: HEC-265, 192 h.
Data set [14] concerns the target Sodium-dependent serotonin transporter (Homo sapiens) (UniProt P31645). Kind of data set: Displacement of [3H]-imipramine from recombinant human 5-HT transporter at 10 uM after 60 mins by scintillation counting relative to control.
The next data set has as its system WSUDLCL2. Briefly: Cytotoxicity against human WSUDLCL2 cells measured after 8 days. Type of data set: functional, cell-based. The note with it: WSUDLCL2, 192 h.
Data set [15] in a line: Cytotoxicity against human KPL-4 cells measured after 8 days. Type of data set: functional, cell-based. The note with it: KPL4, 192 h.
Another data set is filed under the species Rattus norvegicus. Kind of data set: Displacement of [125I]alpha-dendrotoxin from rat brain voltage-gated K channel at 10 uM after 60 mins by scintillation counting analysis relative to control.
A further data set deals with SU-DHL-16. Kind of data set: Cytotoxicity against human SU-DHL-16 cells measured after 8 days. It is filed as functional, cell-based. The note with it: SU-DHL-16, 192 h.
The next data set deals with HuP-T4. Briefly: Cytotoxicity against human HuP-T4 cells measured after 8 days. Type of data set: functional, cell-based. The note with it: HuP-T4, 192 h.
Data set [16] can be described thus: Cytotoxicity against human HMY-1 cells measured after 8 days. It is filed as functional, cell-based. The note with it: HMY-1, 192 h.
In the next data set the test system is HPAC. Kind of data set: Cytotoxicity against human HPAC cells measured after 8 days. Type of data set: functional, cell-based. The note with it: 192 h.
A further data set concerns GA-10. Kind of data set: Cytotoxicity against human GA-10 cells measured after 8 days. It is filed as functional, cell-based. The note with it: GA-10, 192 h.

Here are results for four molecules from ChEMBL document CHEMBL5260810, “Inhibition of bromodomain-containing protein 9 for the prevention of epigenetically-defined drug resistance” (Bioorg Med Chem Lett, 2017).

By IC50 is commonly meant the midpoint of a concentration-inhibition curve. One may read the Kd as the equilibrium constant for the complex coming apart.

Sequence of Bromodomain adjacent to zinc finger domain protein 2B (Q9UIF8 whole entry, the tested form may be a part): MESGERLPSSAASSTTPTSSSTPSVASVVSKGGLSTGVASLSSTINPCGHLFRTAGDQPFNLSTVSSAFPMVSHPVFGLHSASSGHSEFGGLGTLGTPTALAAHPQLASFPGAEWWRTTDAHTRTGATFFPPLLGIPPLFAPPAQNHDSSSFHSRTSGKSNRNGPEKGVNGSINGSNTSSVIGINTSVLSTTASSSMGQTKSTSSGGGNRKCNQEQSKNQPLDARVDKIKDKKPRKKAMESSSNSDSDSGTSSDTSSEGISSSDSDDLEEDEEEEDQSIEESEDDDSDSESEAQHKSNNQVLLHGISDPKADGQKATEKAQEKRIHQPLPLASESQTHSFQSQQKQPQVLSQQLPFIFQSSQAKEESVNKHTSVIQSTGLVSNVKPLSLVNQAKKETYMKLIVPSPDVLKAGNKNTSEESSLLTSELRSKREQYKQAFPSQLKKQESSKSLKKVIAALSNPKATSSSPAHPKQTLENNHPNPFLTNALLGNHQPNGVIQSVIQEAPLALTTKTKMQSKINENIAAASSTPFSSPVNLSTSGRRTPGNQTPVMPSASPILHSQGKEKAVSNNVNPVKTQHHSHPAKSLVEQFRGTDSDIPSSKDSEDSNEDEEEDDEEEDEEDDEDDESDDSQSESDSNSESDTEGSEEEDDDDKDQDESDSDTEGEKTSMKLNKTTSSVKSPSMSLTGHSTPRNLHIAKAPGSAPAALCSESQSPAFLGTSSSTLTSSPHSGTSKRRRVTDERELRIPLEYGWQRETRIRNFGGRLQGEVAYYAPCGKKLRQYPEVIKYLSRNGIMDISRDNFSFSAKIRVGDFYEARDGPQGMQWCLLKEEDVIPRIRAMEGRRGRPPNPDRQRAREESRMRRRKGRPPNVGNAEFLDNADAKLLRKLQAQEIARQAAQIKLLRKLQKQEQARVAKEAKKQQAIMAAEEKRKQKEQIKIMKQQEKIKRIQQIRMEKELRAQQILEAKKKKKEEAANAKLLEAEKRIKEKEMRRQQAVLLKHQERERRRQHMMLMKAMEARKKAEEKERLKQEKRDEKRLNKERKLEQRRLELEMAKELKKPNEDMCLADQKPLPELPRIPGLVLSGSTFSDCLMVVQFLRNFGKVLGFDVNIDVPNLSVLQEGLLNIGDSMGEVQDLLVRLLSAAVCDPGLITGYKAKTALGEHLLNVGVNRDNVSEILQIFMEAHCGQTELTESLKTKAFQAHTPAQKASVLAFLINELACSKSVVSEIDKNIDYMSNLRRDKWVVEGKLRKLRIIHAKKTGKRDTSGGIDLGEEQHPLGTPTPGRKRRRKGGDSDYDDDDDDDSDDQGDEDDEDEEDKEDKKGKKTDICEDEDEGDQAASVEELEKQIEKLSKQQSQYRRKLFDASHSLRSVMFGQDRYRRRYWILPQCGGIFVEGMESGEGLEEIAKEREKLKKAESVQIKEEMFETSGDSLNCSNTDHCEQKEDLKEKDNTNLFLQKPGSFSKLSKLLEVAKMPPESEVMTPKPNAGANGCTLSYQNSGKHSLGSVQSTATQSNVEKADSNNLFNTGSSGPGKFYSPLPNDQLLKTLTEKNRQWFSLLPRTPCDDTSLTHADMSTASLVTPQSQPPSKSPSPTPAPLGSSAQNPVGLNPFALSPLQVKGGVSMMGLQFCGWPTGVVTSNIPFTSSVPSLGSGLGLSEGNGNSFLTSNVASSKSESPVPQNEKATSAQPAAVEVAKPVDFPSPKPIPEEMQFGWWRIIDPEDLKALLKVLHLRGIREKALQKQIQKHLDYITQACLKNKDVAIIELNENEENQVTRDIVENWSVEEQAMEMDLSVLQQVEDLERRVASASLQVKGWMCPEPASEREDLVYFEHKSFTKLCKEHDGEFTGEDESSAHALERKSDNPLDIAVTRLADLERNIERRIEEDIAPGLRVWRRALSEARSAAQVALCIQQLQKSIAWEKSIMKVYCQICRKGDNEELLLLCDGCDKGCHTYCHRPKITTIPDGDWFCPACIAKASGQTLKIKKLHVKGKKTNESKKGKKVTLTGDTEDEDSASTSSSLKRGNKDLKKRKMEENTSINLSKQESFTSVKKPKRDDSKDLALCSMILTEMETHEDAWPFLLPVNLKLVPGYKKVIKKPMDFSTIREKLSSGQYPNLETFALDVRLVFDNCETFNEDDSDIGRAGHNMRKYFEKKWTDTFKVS

As for `C/C=C/Cn1cc(-c2ccc(C(C)(C)O)cc2OC)c2cc[nH]c2c1=O`, the half-inhibitory concentration (IC50) came to 20 µM in the data set on SET-2; 20 µM in the data set with SK-MEL-1; 20 µM in data set [2]; 14.2 µM in the data set with MCF-10A; 20 µM in the data set with LXFL 529; 20 µM in the data set on Hs 294T. The IC50 (in data set [5]; in [6]; in data set [9]; in the data set on BJAB; in the data set on NCI-H647; in the data set with T47D) was 20 µM in each case. Moreover, the IC50 with COR-L47 amounted to 20 µM; in [11], 20 µM; in data set [13], 20 µM; with WSUDLCL2 it was 7.32 µM; in data set [15] it was 20 µM; in the data set on SU-DHL-16, 13.9 µM. In addition, the IC50 (in the data set with HuP-T4; in data set [16]; in the data set with HPAC; in the data set with GA-10) was 20 µM each time. Besides, the Kd in [1], in data set [3], in data set [7], in data set [8], in data set [10] and in data set [12] was over 10 µM throughout. Further, in [4], the inhibition at 2 h, 10 µM is -3%. Also, the values for the Activity (in data set [14]; in the data set filed under Rattus norvegicus) were 3% and -1%, respectively.

As to `C/C=C/Cn1cc(-c2ccc(C(=O)N3CCOCC3)cc2)c2cc[nH]c2c1=O`, the half-maximal inhibitory concentration (IC50) in the data set with SET-2 is 11.1 µM; in the data set with SK-MEL-1, 20 µM; in data set [2], 20 µM; in the data set on MCF-10A, 14.2 µM; in the data set on LXFL 529, 20 µM; in the data set on Hs 294T, 20 µM. Further, the 50% inhibitory concentration (IC50) amounted to 20 µM in data set [5]; 20 µM in data set [6]; 20 µM in data set [9]; 16.5 µM in the data set with BJAB; 20 µM in the data set on NCI-H647; 20 µM in the data set with T47D. In addition, the IC50 was 20 µM with COR-L47; 20 µM in [11]; 20 µM in data set [13]; 8.31 µM in the data set with WSUDLCL2; 20 µM in data set [15]; 10.3 µM with SU-DHL-16. The concentration for half-maximal inhibition (IC50) in the data set on HuP-T4 came out at 20 µM; in data set [16], 20 µM; in the data set on HPAC, 20 µM; in the data set with GA-10, 10.8 µM. The Kd in data set [1] is 27 µM; in [3] it was over 10 µM; in data set [7], over 10 µM; in data set [8], over 10 µM; in data set [10] it was over 10 µM; in data set [12] it was over 10 µM. Further, in data set [4], the inhibition at 2 h, 10 µM was 7%. The figures for the Activity (in data set [14]; in the data set listed under Rattus norvegicus) were 3% and 0%, respectively.

In the case of `C/C=C/Cn1cc(-c2cc(OC)c(C(=O)N3CCOCC3)cc2OC)c2cc(C)[nH]c2c1=O`, the Kd in data set [1] is over 5 µM; in data set [3], over 10 µM; in data set [7], over 10 µM; in data set [8] it was over 10 µM; in data set [10], over 10 µM; in data set [12], over 5 µM. Further, the IC50 (in data set [2]; with Hs 294T; in the data set with BJAB; in the data set with NCI-H647; with T47D; in data set [11]) was 2 µM throughout. The IC50 (with WSUDLCL2; in [15]; with SU-DHL-16; in data set [16]; in the data set with HPAC; in the data set with GA-10) was 2 µM throughout. Further, the inhibition at 2 h, 10 µM in data set [4] worked out at 3%. Also, the Activity in data set [14] came to 4%; in the data set filed under Rattus norvegicus, 2%.

On to `C/C=C/Cn1cc(-c2cc(OC)c(C(C)(C)O)cc2OC)c2cc(C)[nH]c2c1=O`, for which the Kd in data set [1], in [3], in data set [7], in [8], in [10] and in [12] was over 10 µM throughout.
